According to patent US8975280B2, “Deoxynojirimycin and D-arabinitol analogs and methods of using” (The Chancellor, Masters and Scholars of The University of …, priority 2006, dated 2015):

Target: T1, glucosidase II (Homo sapiens, UniProt Q14697)
T1 construct: endogenous in cells; host or cells: HL60 cells
T1 sequence (Q14697 29-944): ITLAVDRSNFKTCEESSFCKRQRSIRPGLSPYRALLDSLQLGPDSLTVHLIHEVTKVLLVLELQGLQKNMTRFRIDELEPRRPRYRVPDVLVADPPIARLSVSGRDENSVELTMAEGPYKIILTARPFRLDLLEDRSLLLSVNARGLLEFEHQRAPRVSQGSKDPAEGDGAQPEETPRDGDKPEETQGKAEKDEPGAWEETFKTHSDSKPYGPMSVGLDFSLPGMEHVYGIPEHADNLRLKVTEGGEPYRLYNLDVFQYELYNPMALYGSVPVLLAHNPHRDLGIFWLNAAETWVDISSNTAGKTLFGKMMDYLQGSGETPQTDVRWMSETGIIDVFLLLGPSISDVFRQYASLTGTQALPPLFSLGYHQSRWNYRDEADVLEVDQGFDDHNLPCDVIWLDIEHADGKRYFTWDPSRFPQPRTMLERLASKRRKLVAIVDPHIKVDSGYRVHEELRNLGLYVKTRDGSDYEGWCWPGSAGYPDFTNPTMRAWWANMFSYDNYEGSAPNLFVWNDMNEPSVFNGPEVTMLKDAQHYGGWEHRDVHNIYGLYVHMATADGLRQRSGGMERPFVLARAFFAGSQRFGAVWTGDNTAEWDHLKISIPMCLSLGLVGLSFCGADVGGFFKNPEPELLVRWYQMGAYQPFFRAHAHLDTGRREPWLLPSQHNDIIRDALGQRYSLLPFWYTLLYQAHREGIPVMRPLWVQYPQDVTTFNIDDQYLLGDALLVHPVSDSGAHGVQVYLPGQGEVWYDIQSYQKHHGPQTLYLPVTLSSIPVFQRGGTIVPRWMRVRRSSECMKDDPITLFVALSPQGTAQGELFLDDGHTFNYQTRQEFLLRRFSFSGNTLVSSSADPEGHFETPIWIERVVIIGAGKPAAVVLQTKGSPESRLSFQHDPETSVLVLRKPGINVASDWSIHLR
T1 sequence (P14314 15-528 partner): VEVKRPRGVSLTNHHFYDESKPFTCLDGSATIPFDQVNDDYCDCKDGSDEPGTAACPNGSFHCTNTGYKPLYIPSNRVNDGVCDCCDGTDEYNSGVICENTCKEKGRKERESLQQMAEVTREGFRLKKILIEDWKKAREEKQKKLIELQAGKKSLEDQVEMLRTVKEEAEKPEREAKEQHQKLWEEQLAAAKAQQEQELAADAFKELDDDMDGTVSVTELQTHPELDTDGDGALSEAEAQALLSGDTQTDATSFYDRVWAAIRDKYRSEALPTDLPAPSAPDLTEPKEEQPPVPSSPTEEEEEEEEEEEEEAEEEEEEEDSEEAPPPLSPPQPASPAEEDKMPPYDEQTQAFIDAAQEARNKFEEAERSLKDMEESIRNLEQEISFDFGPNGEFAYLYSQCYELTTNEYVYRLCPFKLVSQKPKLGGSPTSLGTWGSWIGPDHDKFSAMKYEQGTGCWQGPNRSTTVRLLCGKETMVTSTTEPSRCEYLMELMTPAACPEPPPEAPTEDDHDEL
Assay: Inhibition of glucosidase II in HL60 cells, free oligosaccharide (G1M5N) analysis by NP-HPLC
Type: cell-based
Details: 24 h
Method: The effect of an ER-glucosidase inhibitor on cells was evaluated using an assay method by modifying known methods. (H. R. Mellor et al., Cellular Effects of Deoxynojirimycin Analogues: Inhibition of N-Linked Oligosaccharide Processing and Generation of Free Glucosylated Oligosaccharides, 381 Biochem. J. 867-875 (2004). The detection of free oligosaccharides following imino sugar treatment to generate misfolded protein that is degraded in the cytosol is an accurate measure of cell ER entry and inhibition of glycoprotein processing of α-glucosidases I and II by imino sugars.
Cells were cultured to high density (×10^7 cells/ml) prior to growth in fresh medium containing NB-DNJ at varying concentrations. The cells were seeded at a lower density so as to achieve a high density at the end of the incubation period. […] The conditions for extraction of FOS were determined to maximize recovery of FOS. […]
ConA-Sepharose purified 2-AA-labeled oligosaccharides were separated by NP-HPLC using a 4.6×250 mm TSKgel Amide-80 column (Anachem, Luton, UK) with slight modifications to known methods. (D. C. Neville, et al.) The chromatography system consisted of a Waters Alliance 2695 separations module and an in-line Waters 474 fluorescence detector set at an excitation wavelength of 360 nm and emission wavelength of 425 nm. […]

In the case of [N-]=[N+]=Nc1ccc(NCCCCCCN2C[C@H](O)[C@@H](O)[C@H](O)[C@H]2CO)c([N+](=O)[O-])c1 [NAP-DNJ, N—(N′-{4′azido-2′-nitrophenyl)-6-aminohexyl)-deoxynojirimycin], the “concentration at which glucosidase II is inhibited in cells” value is reported as 1 to 10 µM.
